Counter-ions that a name gives are not always drawn.
Experiments:
solubility in saline = format: physicochemical
[1] = tested on: spontaneous recurrent seizures; assay: spontaneous recurrent seizures (SRS) model of epilepsy; format: in vivo, Sprague-Dawley rat; conditions: for effective in decreasing seizures by at least 50%: administered at Time 1 (Day 1, after status epilepticus, before onset of SRS); for effective in decreasing seizures by at least 50% / effective in decreasing seizures (seizure frequency) by at least 50%: 20 mg/kg/day i.v. for 10 days; for effective in decreasing seizures (seizure frequency) by at least 50%: administered at Time 2 (Day 30, established SRS)
Protocol: The “spontaneous recurrent seizures” (SRS) model of epilepsy was used to evaluate candidate compounds in a model for Phase 1 epileptogenesis (see, e.g., Mello, E. et al., Epilepsia (1993) 34:985; Cavalheiro, J. et al., Epilepsia (1991) 32:778). In the SRS model, an adult male Sprague-Dawley rat (c. 260 g) is given pilocarpine by injection (380 mg/kg i.p.). Within 25 minutes, the animal enters status epilepticus, which typically lasts for 15-20 hours (although about 10% of animals die at this stage). The rat is allowed to spontaneously recover and is given food and water ad lib. and maintained on a 12 hour/12 hour light/dusk cycle. Rats are usually studied in groups of four. Beginning on about day 13-15, the rats develop spontaneous recurrent seizures, which occur at the rate of about 4-5 per week. The rats are videotaped 24 hours per day, and the videotapes are reviewed for behavioral seizures (including head nodding, forelimb clonus, and rearing), which are counted. The animals are watched for three months, permitting evaluation of a sufficient number of seizures. […] Administration of the candidate compound at Time 1 permits evaluation for anti-epileptogenic properties (ability to prevent the onset of seizures); administration of compounds at Time 2 permits evaluation of drugs as anti-ictogenics with the ability to suppress established seizures.
As a reference, the standard anticonvulsant phenytoin was administered (20 mg/kg/day i.v. for 10 day) at either Time 1 or Time 2.

mice = assay: testing of dioxapiperazine compounds in mice (Example 7); format: in vivo; set-up: key to Activity: 300 mg/kg / Activity: 100 mg/kg / Activity: 30 mg/kg: 0 (inactive); 1: Activity on scale of 0 (inactive) to 4.; 2: Activity on scale of 0 (inactive) to 4.; 3: Activity on scale of 0 (inactive) to 4.; Activity on scale of 0 (inactive) to 4; conditions: for Activity: 100 mg/kg / Activity: 300 mg/kg / Activity: 30 mg/kg: mice, 30 minutes and four hours after administration; for anti-convulsive activity: animal model system of Table 4, in words
Protocol: (§1) Selected compounds were dissolved in 0.9% NaCl or suspended in a mixture of 30% polyethylene glycol 400 and 70% water, and tested in an animal model. Briefly, the compounds were administered intraperitoneally or or orally to carsworth Farms #1 mice (in a volume of 0.01 ml/g of body weight) or Sprague-Dawley rats (in a volume of 0.004 ml/g body weight). Times on peak effect and peak neurologic deficit were determined before the anticonvulsant tests were administered.
(§2) The maximal electroshock seizure test (MES), corneal electrodes primed with a drop of electrolyte solution (0.9% NaCl) were applied to the eyes of the animal and an electrical stimulus (50 mA for mice, 150 mA for rats; 60 Hz) was delivered for 0.2 second at the time of the peak effect of the test compound. The animals were restrained by hand and released at the moment of stimulation in order to permit observation of the seizure.
(§3) In the subcutaneous pentylenetetrazol threshold test (scMet), the convulsant dose (CD97) of pentylenetetrazol (85 mg/kg in rats) was injected at the time of peak effect of the test compound. The animals were isolated and observed for 30 minutes to see whether seizures occurred.
(§4) Acute anti-convulsant drug-induced toxicity in lab animals is usually characterized by some type of neurologic abnormality. In mice, these abnormalities can be detected by the rotorod ataxia test, which is somewhat less useful in rats. In the rotorod ataxia test, neurologic deficit is indicated by the inability of the animal to maintain equilibrium for at least one minute on a knurled rod rotating at 6 rpm. […] Inability to return the leg to normal position indicates a neurologi deficit.
Testing of the compounds was performed in 12 mice at doses of 30, 100, 300 mg/kg (4 mice each) 30 minutes and four hours after the test compounds was administered.

[2] = tested on: MES-induced seizure; pentylenetetrazol induced seizure; assay: biological activity per Example 6 (MES, scMet anticonvulsant tests); format: in vivo, carsworth Farms #1 mice or Sprague-Dawley rats; conditions: tested per Example 6
Protocol: as §1, §2, §3, §4

Compound: Cc1ccc(C(CC(=O)O)NCl)cc1 (stereo not shown)
- solubility (solubility in saline): 7.2-7.1 (M, 4H)4.17-4.09(t, 1H, 7.4 Hz)2.39-2.46 (m, 2H)solubility: ~10 mg/mlsaline

Compound: O=C(O)CC(NCl)c1ccc(Cl)cc1 (stereo not shown)
- solubility (solubility in saline): 7.3-7.17 (s, 4H)4.07-4.17 (t, 7H, 7.2 Hz)2.45-2.55 (dt, 4.5 Hz, 3.5Hz)solubility: ~10 mg/mlsaline

Compound: NC(CC(=O)O)c1ccccc1 (stereo not drawn) [Compound B5P91, β-Phenyl-β-alanine]
- solubility (solubility in saline): 7.35-7.2 (s, 5H)4.45 (t, 1H, 7.3 Hz)2.8-2.1 (m, 2H)solubility: ~10 mg/mlsaline

Compound: CC(C)(C)C1CCC(C(CN)C(=O)O)CC1.Cl (stereo not drawn) [Compound B5P127, α-(4-tert-Butylcyclohexyl)-β-alanine Hydrochloride Salt]
- effective in decreasing seizures by at least 50% [1]: 75%
- effective in decreasing seizures (seizure frequency) by at least 50% [1]: 50%

Compound: CC1NC(=O)C(c2ccc(O)cc2)NC1=O [c/D-(p-OH)-Peg-L-Ala]
- Activity: 100 mg/kg (mice): 0
- Activity: 300 mg/kg (mice): 0

Compound: NCCCCC1NC(=O)C(c2ccc(O)cc2)NC1=O [c/D-(p-OH)-Peg-L-Lys]
- Activity: 100 mg/kg (mice): 0
- Activity: 300 mg/kg (mice): 0

Compound: NCCCCC1NC(=O)C(c2ccccc2)NC1=O [c/D-Peg-D-Lys]
- Activity: 100 mg/kg (mice): 0
- Activity: 300 mg/kg (mice): 0

Compound: CSCCC1NC(=O)C(c2ccccc2)NC1=O [c/D-Peg-D-Met]
- Activity: 100 mg/kg (mice): 0
- Activity: 300 mg/kg (mice): 0

Compound: NCCC[C@H]1NC(=O)[C@@H](c2ccccc2)NC1=O [c/D-Peg-D-Orn]
- Activity: 100 mg/kg (mice): 0
- Activity: 300 mg/kg (mice): 0

Compound: O=C1CNC(=O)[C@@H](c2ccccc2)N1 [c/D-Peg-Gly]
- Activity: 30 mg/kg (mice): 0
- Activity: 100 mg/kg (mice): 1
- Activity: 300 mg/kg (mice): 2

Compound: C[C@@H]1NC(=O)[C@@H](c2ccccc2)NC1=O [c/D-Peg-L-Ala, Cyclo-D-phenylglycine-L-alanine]
- anti-convulsive activity (mice): strong anti-convulsive activity
- Activity: 30 mg/kg (mice): 2
- Activity: 100 mg/kg (mice): 3
- Activity: 300 mg/kg (mice): 4

Compound: N=C(N)NCCC[C@@H]1NC(=O)[C@@H](c2ccccc2)NC1=O [c/D-Peg-L-Arg]
- Activity: 100 mg/kg (mice): 0
- Activity: 300 mg/kg (mice): 0

Compound: NCCCCC1NC(=O)C(c2ccccc2)NC1=O [c/D-Peg-L-Lys]
- Activity: 100 mg/kg (mice): 0
- Activity: 300 mg/kg (mice): 1

Compound: CSCCC1NC(=O)C(c2ccccc2)NC1=O [c/D-Peg-L-Met]
- Activity: 100 mg/kg (mice): 0
- Activity: 300 mg/kg (mice): 1

Compound: NCCCC1NC(=O)C(c2ccccc2)NC1=O [c/D-Peg-L-Ornithine (Orn)]
- Activity: 100 mg/kg (mice): 0
- Activity: 300 mg/kg (mice): 0

Compound: NCCC1NC(=O)C(c2ccccc2)NC1=O [c/D-Peg-L-diaminobutyric acid]
- Activity: 100 mg/kg (mice): 0
- Activity: 300 mg/kg (mice): 0

Compound: C[C@@H]1NC(=O)[C@H](c2ccccc2)NC1=O [c/L-Peg-L-Ala]
- Activity: 100 mg/kg (mice): 0
- Activity: 300 mg/kg (mice): 0

Compound: CC(C)CC1NC(=O)C(C)NC1=O [c/L-alanine-D-leucine]
- anti-convulsive activity (mice): active

Compound: O=C1NC(=O)C(c2ccccc2)(c2ccccc2)N1 [phenytoin]
- preventing the onset of seizures ([1]; administered at Time 1, 20 mg/kg/day i.v. for 10 day): ineffective
- effective in decreasing seizures (seizure frequency) by at least 50% [1]: 75%

Compound: COc1cc(C)c(C(N)CC(=O)O)cc1C (stereo not drawn) [β-2,5-dimethyl-4-methoxyphenyl-β-alanine]
- biological activity [2]: at least weak activity

Compound: NC(CC(=O)O)c1cccc(C(F)(F)F)c1F (stereo not drawn) [β-2-fluoro-3-(trifluoromethyl)phenyl-β-alanine]
- biological activity [2]: moderate

Compound: COc1cccc(C(N)CC(=O)O)c1O (stereo not drawn) [β-2-hydroxy-3-methoxyphenyl-β-alanine]
- biological activity [2]: at least weak activity

Compound: COc1ccc(C(N)CC(=O)O)cc1C (stereo not drawn) [β-3-methyl-4-methoxyphenyl-β-alanine]
- biological activity [2]: slight

Compound: NCCC(=O)O [β-alanine]
- effective in decreasing seizures by at least 50% [1]: 75%
- effective in decreasing seizures (seizure frequency) by at least 50% [1]: 50%

Compound: NC(CC(=O)O)c1ccc(OC(F)(F)F)cc1 (stereo not drawn) [β-p-(trifluoromethoxy)phenyl-β-alanine]
- biological activity [2]: at least weak activity

Compound: Cc1ccc(C(N)CC(=O)O)cc1 (stereo not drawn) [β-p-methylphenyl-β-alanine hydrochloride]
- biological activity [2]: at least weak activity

Compound: cyclo-D-phenylglycyl-(S-Me)-L-cysteine [c/D-Peg-L-(S-methyl)-L-cysteine]
- anti-convulsive activity (mice): strong anti-convulsive activity
- Activity: 30 mg/kg (mice): 2
- Activity: 100 mg/kg (mice): 3
- Activity: 300 mg/kg (mice): 4

— patent publication US7268164B2, “Anti-epileptogenic agents” (Queens University at Kingston, priority 1997, dated 2007)
